Experimental data taken from patent publication US20230203058A1, “MACROCYCLIC DIAMINE DERIVATIVES AS ENT INHIBITORS FOR THE TREATMENT OF CANCERS, AND COMBINATION THEREOF WITH ADENOSINE RECEPTOR ANTAGONISTS” (ITEOS BELGIUM SA, priority 2020, published 2023).
pIC50: −log10 of the molar value. Like-named read-outs stand apart in the source and are kept apart here.

What was measured:
human ENT1 = target: T1, human ENT1 (Homo sapiens, UniProt Q99808); assay: ENT1 binding assay (competition with Sahenta-DY647 on JAR cells); design: JAR cells expressing ENT1 were bought from ATCC® (HTB-144TM); host or cells: JAR cells (human choriocarcinoma line; whole cells); settings: competition with Sahenta-DY647 100 nM, 4° C.
T1 sequence (Q99808 1-456): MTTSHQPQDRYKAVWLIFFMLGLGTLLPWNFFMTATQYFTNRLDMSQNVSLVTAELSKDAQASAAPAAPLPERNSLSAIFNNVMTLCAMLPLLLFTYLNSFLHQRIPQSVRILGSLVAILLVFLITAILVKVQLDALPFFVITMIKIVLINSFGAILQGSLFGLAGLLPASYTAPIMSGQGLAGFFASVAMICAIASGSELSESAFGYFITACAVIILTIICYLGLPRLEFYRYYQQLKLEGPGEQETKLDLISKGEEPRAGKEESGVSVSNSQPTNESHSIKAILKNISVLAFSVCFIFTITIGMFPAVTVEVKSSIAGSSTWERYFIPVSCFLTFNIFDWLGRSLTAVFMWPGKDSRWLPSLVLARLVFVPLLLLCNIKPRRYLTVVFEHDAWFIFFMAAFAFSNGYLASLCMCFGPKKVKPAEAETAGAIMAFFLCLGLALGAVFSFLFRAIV
In short: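 Competition binding on intact JAR cells (50000 per well) in HBSS with 10 mM Hepes and 0.1% BSA. Cells pre-incubated with compound 30 min at 4 °C, then Sahenta-DY647 added at its IC90 (100 nM) for another 30 min at 4 °C; after washing, fluorescence read at Ex 630/Em 670 nm.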

[1] = tested on: stimulated primary human T cells; assay: T cell proliferation assay (rescue of proliferation in presence of ATP, CFSE dilution); format: cell-based; settings: 100 uM ATP
Experimental: The aim of this study was to determine the potency of equilibrative nucleoside transporter 1 (ENT1) inhibitors to rescue proliferation by stimulated primary human T cells incubated in the presence of 100 uM Adenosine triphosphate (ATP), in baseline conditions (condition A) or in the presence of various proteins known to bind small molecules (condition B). Condition A: X-VIVO15 Condition B: X-VIVO15, 2% Human Serum Albumine (HSA) and 0,1% α-1-Acid Glycoprotein (AAG)
Cryopreserved purified human CD3+ T cells were thawed and washed twice with RPMI1640 medium, UltraGlutamine containing 10% hiFBS.
Cells were suspended in PBS containing 10% hiFBS. Cells were stained with CFSE by adding 2 µM solution in PBS, to get a final 1 µM CFSE solution. Cells were incubated while rotating for 5 minutes. Reaction was stopped by adding PBS with 10% FBS and cells were centrifuged for 5 minutes at 1500 rpm.
Cells were resuspended at 1.6 ×10^6 cells/mL, either in X-VIVO15 medium or in 4% Human Serum Albumin and 0,2% α-1-Acid Glycoprotein. 50 µL of cell suspension (8×10^4 T cells) was added to wells of sterile round-bottom 96-well plates. Cells were activated by adding 50 µL of anti-CD3 anti-CD28 coated microbeads, suspended either in XVIVO-15 medium or in 4% HSA and 0,2% α-1-Acid Glycoprotein, at a ratio of one microbead per two cells. Serial dilutions of the ENT1 inhibitors were prepared in X-VIVO15 from 10 mM stock solutions in DMSO, and 50 µL was added to the wells. ATP powder was diluted in X-VIVO15, and 50 µL of this compound was added to the wells to reach a final assay concentration of 100 µM. Final volume of 200 µL. The experiments were also performed in 384 well plates - all volumes reduced by a factor of 4 (12,5 µL) with a final volume of 50 µL. Experiments were performed in duplicate. The cells were placed in a 37° C. humidified tissue culture incubator with 5% CO2 for 72 hours for 96 well plates, 96 hours for 384 well plates. After 72 or 96 hours, proliferation was measured determined by CFSE dilution via flow cytometry.

hERG ion channel = target: T2, hERG ion channel (Homo sapiens, UniProt Q12809); assay: hERG ion channel inhibition (Patchliner automated patch-clamp, CHO cells); format: cell-based; settings: whole-cell, room temperature, 6-point curve up to 100 µM
T2 construct: Chinese Hamster Ovary cell lines stably expressing the full-length ion channel; expressed in transfected cells
T2 sequence (Q12809 whole entry): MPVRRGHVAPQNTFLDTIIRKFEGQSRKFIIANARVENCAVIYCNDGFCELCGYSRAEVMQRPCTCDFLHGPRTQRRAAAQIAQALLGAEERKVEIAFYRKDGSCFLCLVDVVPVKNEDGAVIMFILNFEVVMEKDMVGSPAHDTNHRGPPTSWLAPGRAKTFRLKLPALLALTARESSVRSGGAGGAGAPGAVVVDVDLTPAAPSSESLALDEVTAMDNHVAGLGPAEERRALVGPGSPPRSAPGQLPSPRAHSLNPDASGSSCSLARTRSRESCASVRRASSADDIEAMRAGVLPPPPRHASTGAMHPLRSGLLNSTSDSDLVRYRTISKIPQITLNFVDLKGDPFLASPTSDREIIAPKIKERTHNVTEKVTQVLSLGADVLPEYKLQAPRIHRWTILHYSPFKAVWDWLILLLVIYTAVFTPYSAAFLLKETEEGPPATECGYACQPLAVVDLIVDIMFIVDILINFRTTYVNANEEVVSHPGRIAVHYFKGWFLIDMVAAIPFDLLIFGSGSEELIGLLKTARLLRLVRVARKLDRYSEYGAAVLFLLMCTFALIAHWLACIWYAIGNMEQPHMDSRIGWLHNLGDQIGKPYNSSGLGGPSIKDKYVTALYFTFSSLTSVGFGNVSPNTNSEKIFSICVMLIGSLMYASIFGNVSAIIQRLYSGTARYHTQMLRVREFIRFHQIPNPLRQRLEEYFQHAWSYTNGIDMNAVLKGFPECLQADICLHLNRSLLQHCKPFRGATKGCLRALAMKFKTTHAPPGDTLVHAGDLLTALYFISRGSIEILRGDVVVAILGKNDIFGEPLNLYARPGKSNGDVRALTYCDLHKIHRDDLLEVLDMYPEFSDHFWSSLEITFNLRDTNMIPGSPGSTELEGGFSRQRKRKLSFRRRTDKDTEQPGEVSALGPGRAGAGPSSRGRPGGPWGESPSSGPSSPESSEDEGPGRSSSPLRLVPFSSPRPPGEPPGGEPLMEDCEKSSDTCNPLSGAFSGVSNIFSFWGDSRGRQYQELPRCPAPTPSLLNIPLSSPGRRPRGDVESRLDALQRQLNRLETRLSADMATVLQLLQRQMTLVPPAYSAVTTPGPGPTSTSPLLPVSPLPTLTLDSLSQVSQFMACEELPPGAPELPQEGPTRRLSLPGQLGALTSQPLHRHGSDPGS
Experimental: The compounds were tested for inhibition of hERG ion channel. 6-Point concentration-response curves were generated on the Patchliner automated patch-clamp using serial dilutions from a maximum test concentration of 100 µM.
Compounds were solubilised to 33 mM in DMSO before dilution in HBPS to 100 µM. 6-Point concentration-response curves were generated using serial dilutions from the top test concentration. Electrophysiological recordings were made from a Chinese Hamster Ovary cell lines stably expressing the full-length ion channel. Single cell ionic currents were measured in whole-cell configuration at room temperature (21-23° C.) using a Patchliner (Nanion Technologies). The internal solution for hERG contained (mM): 120 KF, 20 KCl, 10 EGTA, 10 HEPES and was buffered to pH 7.3. The external solution (HEPES-buffered saline, HBPS) contained (mM): 138 NaCl, 4.5 KCl, 1.8 CaC12, 1.0 MgC12, 10 HEPES, 10 glucose, buffered to pH7.4. Cells were clamped at a holding potential of -80 mV before a depolarising step appropriate for the hERG channel. Currents were measured from the step and referenced to the holding current. Compounds were incubated for 90 seconds. Concentration-response curves were generated by cumulative addition of compound with concentrations low to high. In all cases, steady-state inhibition was achieved before the next concentration of compound was added.
IC50 values were obtained from a 4-parameter logistic fit of the concentration-response data: […]

[2] = Condition A: X-VIVO15, read-out: T Cell proliferation (Condition A) IC50
[3] = Condition B: X-VIVO15, 2% HSA and 0,1% AAG, read-out: (2) T Cell proliferation (Condition B) IC50

Structure (SMILES)	pIC50 (human ENT1)	pIC50 [1, 2]	pIC50 [1, 3]	pIC50 (hERG ion channel)
COc1cc2cc(c1OC)OCCCC(OC(=O)c1ccc(OC(C)C)cc1)CCN1CCCN(CCCOC2=O)CC1 (centres unmarked) [Compound 43, 74,75-dimethoxy-6-oxo-5,8-dioxa-1(1,4)-diazepana-7(1,3)-benzenacyclotetradecaphane-12-yl 4-isopropoxybenzoate]	6.30 to 7.70	> 9.00	7.70 to 9.00	–
COc1cc2cc(c1OC)OCCCC(OC(=O)c1cccc(Oc3ccccc3)c1)CCN1CCCN(CCCOC2=O)CC1 (centres unmarked) [Compound 46, 74,75-dimethoxy-6-oxo-5,8-dioxa-1(1,4)-diazepana-7(1,3)-benzenacyclotetradecaphane-12-yl 3-phenoxybenzoate]	6.30 to 7.70	7.70 to 9.00	6.30 to 7.70	–
COc1cc2cc(c1OC)OCCCC(OC(=O)c1ccccn1)CCN1CCCN(CCCOC2=O)CC1 (centres unmarked) [Compound 52, 74,75-dimethoxy-6-oxo-5,8-dioxa-1(1,4)-diazepana-7(1,3)-benzenacyclotetradecaphane-12-yl picolinate]	7.70 to 9.00	–	–	5.57
COc1cc2cc(c1OC)OCCCC(OC(=O)c1cnccn1)CCN1CCCN(CCCOC2=O)CC1 (centres unmarked) [Compound 54, 74,75-dimethoxy-6-oxo-5,8-dioxa-1(1,4)-diazepana-7(1,3)-benzenacyclotetradecaphane-12-yl pyrazine-2-carboxylate]	7.70 to 9.00	6.30 to 7.70	< 6.30	–
COc1cc2cc(c1OC)OCCCC(OC(=O)c1c[nH]nn1)CCN1CCCN(CCCOC2=O)CC1 (centres unmarked) [Compound 58, 74,75-dimethoxy-6-oxo-5,8-dioxa-1(1,4)-diazepana-7(1,3)-benzenacyclotetradecaphane-12-yl 1 H-1,2,3-triazole-4-carboxylate]	7.70 to 9.00	7.70 to 9.00	< 6.30	–
COc1cc2cc(c1OC)OCCCC(OC(C)=O)CCN1CCCN(CCCOC2=O)CC1 (centres unmarked) [Compound 59, 74,75-dimethoxy-6-oxo-5,8-dioxa-1(1,4)-diazepana-7(1,3)-benzenacyclotetradecaphane-12-yl acetate]	7.70 to 9.00	7.70 to 9.00	< 6.30	–
COc1cc2cc(c1OC)OCCCC(OC(=O)C1CC1)CCN1CCCN(CCCOC2=O)CC1 (centres unmarked) [Compound 60, 74,75-dimethoxy-6-oxo-5,8-dioxa-1(1,4)-diazepana-7(1,3)-benzenacyclotetradecaphane-12-yl cyclopropanecarboxylate]	7.70 to 9.00	7.70 to 9.00	< 6.30	–
COCCC(=O)OC1CCCOc2cc(cc(OC)c2OC)C(=O)OCCCN2CCCN(CC1)CC2 (centres unmarked) [Compound 93, 74,75-dimethoxy-6-oxo-5,8-dioxa-1(1,4)-diazepana-7(1,3)-benzenacyclotetradecaphane-12-yl 3-methoxypropanoate]	7.70 to 9.00	7.70 to 9.00	< 6.30	–
COc1cc2cc(c1OC)OCCCC(OC(=O)CCn1cccn1)CCN1CCCN(CCCOC2=O)CC1 (centres unmarked) [Compound 94, 74,75-dimethoxy-6-oxo-5,8-dioxa-1 (1,4)-diazepana-7(1,3)-benzenacyclotetradecaphane-12-yl 3-(1H-pyrazol-1-yl)propanoate]	7.70 to 9.00	7.70 to 9.00	< 6.30	–
COc1cc2cc(c1OC)OCCCC(OC(=O)CCCC#N)CCN1CCCN(CCCOC2=O)CC1 (centres unmarked) [Compound 96, 74,75-dimethoxy-6-oxo-5,8-dioxa-1 (1,4)-diazepana-7(1,3)-benzenacyclotetradecaphane-12-yl 4-cyanobutanoate]	7.70 to 9.00	7.70 to 9.00	< 6.30	–
COc1cc2cc(c1OC)OCCCC(OC(=O)CCCNC(C)=O)CCN1CCCN(CCCOC2=O)CC1 (centres unmarked) [Compound 97, 74,75-dimethoxy-6-oxo-5,8-dioxa-1(1,4)-diazepana-7(1,3)-benzenacyclotetradecaphane-12-yl 4-acetamidobutanoate]	7.70 to 9.00	> 9.00	< 6.30	–
COc1cc2cc(c1OC)OCCCC(OC(=O)CCC(=O)N(C)C)CCN1CCCN(CCCOC2=O)CC1 (centres unmarked) [Compound 99, 74,75-dimethoxy-6-oxo-5,8-dioxa-1(1,4)-diazepana-7(1,3)-benzenacyclotetradecaphane-12-yl 4-(dimethylamino)-4-oxobutanoate]	7.70 to 9.00	> 9.00	6.30 to 7.70	–
COc1cc2cc(c1OC)OCCCC(OC(=O)CCNC(C)=O)CCN1CCCN(CCCOC2=O)CC1 (centres unmarked) [Compound 100, 74,75-dimethoxy-6-oxo-5,8-dioxa-1(1,4)-diazepana-7(1,3)-benzenacyclotetradecaphane-12-yl 3-acetamidopropanoate]	7.70 to 9.00	7.70 to 9.00	< 6.30	–
